The term melting point denotes the temperature, or range, at which the solid turns liquid. The IC50 is the concentration needed to halve the response being measured.

Some results are limits rather than exact numbers.

The target of one data set is T1, HDAC 6 (Homo sapiens, UniProt Q9UBN7).
T1 sequence (Q9UBN7 1-1215): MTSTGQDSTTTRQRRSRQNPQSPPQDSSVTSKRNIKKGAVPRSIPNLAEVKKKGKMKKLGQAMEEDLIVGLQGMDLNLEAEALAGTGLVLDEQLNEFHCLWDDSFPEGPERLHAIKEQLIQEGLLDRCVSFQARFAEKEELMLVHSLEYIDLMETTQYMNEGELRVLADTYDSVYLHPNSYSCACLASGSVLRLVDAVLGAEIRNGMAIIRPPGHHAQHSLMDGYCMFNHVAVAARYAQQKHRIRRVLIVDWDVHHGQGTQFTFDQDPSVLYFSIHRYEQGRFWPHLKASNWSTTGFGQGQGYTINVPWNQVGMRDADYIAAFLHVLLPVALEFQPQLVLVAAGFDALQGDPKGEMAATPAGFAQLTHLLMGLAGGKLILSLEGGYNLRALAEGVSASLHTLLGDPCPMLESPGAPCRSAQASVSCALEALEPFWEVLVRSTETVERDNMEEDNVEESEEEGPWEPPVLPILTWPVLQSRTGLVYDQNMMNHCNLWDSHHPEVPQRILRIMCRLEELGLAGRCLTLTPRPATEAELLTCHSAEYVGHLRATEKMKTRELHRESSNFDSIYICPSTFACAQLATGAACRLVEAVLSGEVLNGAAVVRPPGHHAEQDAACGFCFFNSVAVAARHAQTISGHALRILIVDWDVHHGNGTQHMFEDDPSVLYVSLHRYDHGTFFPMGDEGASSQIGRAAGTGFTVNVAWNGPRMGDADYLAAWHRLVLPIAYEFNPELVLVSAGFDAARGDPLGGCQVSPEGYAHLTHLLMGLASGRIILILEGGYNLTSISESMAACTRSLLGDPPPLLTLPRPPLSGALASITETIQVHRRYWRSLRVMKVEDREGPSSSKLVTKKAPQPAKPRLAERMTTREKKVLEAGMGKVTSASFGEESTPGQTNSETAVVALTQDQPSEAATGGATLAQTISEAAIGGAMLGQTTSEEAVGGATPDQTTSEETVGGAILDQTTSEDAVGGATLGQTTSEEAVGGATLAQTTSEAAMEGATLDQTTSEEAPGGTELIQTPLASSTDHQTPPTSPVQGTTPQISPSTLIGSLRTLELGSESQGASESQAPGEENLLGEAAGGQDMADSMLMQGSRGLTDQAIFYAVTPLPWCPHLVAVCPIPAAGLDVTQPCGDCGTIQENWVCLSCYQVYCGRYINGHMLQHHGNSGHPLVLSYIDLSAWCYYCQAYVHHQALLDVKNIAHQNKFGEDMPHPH
The data set can be described thus: Caliper HDAC inhibitor profiling assay (microfluidic mobility-shift), HDAC 6. The format is biochemical. Conditions: 1 hour at room temperature, read-out: IC50 (μM) HDAC6. The procedure:
(§1) The activity of the compounds of the invention against HDAC 3 (Class I) and HDAC 6 (Class II) can be determined using the Caliper Life Sciences HDAC inhibitor profiling assay, which utilises microfluidic mobility-shift detection.
(§2) Reaction buffer: 25 mM Tris/Cl, pH 8.0, 137 mM NaCl, 2.7 mM KCl, 1 mM MgCl2, 0.1 mg/ml BSA (fatty acid free).
(§3) Stop Buffer: 100 mM HEPES, pH 7.5, 10 mM EDTA, 0.04% Brij-35, 0.25% CR-3, and 2.5 μM Trichostatin A.
(§4) Stopped reactions were assembled in microtiter plate wells by adding 1 μL of the inhibitor compound in DMSO, 15 μL 2× Enzyme, and 15 μL 2× peptide. The reactions were incubated for 1 hour at room temperature, stopped with the addition of 45 μL Stop Solution, and read on the LabChip EZ Reader®. The curves were fit with sigmoidal dose response algorithm using GraphPad Prism.

Another data set addresses HDAC 3 (Homo sapiens, UniProt O15379). Briefly: Caliper HDAC inhibitor profiling assay (microfluidic mobility-shift), HDAC 3. The format is biochemical. Conditions: 1 hour at room temperature, read-out: IC50 (μM) HDAC3. The method, then: as §1, §2, §3, §4

Chain of HDAC 3 (O15379 whole entry, species assumed): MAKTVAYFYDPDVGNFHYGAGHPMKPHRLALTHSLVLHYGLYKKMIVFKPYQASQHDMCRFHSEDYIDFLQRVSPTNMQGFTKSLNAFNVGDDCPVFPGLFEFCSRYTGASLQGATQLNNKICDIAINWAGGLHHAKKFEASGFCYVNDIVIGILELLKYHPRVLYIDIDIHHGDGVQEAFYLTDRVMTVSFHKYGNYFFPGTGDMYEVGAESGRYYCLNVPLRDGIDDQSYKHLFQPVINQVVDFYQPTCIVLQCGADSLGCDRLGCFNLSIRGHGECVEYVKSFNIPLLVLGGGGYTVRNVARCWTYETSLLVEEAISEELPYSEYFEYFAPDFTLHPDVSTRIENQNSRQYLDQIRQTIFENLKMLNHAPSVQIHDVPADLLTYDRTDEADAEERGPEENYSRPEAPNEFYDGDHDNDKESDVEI
Chain of HDAC 3 (Q9Y618 395-489 partner limits assumed, species assumed): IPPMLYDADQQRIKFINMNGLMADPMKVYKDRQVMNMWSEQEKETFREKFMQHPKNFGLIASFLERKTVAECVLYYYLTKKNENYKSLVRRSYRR

On to `C=C1CN(Cc2ccc(C(=O)Nc3ccccc3N)cc2)C(CC(=O)OCC)c2ccccc21` (stereo not drawn) [Example 1, Ethyl [2-(4-{[(2-aminophenyl)amino]carbonyl}benzyl)-4-methylene-1,2,3,4-tetrahydroisoquinolin-1-yl]acetate], for which the melting point was 111 to 113 °C. Moreover, on HDAC 6, the IC50 is > 10 µM. Also, at HDAC 3, the IC50 was 0.89 µM.
`C=C1CN(Cc2ccc(C(=O)Nc3ccccc3N)cc2)C(CC(=O)N2CCCCC2)c2ccccc21` (stereo not drawn) [Example 2, N-(2-Aminophenyl)-4-{[4-methylene-1-(2-oxo-2-piperidin-1-ylethyl)-3,4-dihydroisoquinolin-2(1H)-yl]methyl}benzamide] showed a melting point of 89 to 91 °C. For the same molecule, on HDAC 6, the IC50 was > 10 µM. In addition, the IC50 at HDAC 3 worked out at 0.51 µM.
In turn, `C=C1CN(Cc2ccc(C(=O)Nc3ccccc3N)cc2)C(CC(=O)OC)c2ccccc21` (stereo not drawn) [Example 3, Methyl [2-(4-{[(2-aminophenyl)amino]carbonyl}benzyl)-4-methylene-1,2,3,4-tetrahydroisoquinolin-1-yl]acetate] showed a melting point of 151 to 153 °C. On HDAC 6, the IC50 was > 10 µM. For the same molecule, the IC50 at HDAC 3 came to 0.98 µM.
For `C=C1CN(Cc2ccc(C(=O)Nc3ccccc3N)cc2)C(CC(=O)N2CCOCC2)c2ccccc21` (stereo not drawn) [Example 4], the melting point was 99 to 101 °C. Further, the IC50 at HDAC 6 was > 10 µM. Moreover, the IC50 on HDAC 3 amounted to 0.26 µM.
With `C=C1CN(Cc2ccc(C(=O)Nc3ccccc3N)cc2)C(CC(=O)c2ccccc2)c2ccccc21` (stereo not drawn) [Example 5, N-(2-Aminophenyl)-4-{[4-methylene-1-(2-oxo-2-phenylethyl)-3,4-dihydroisoquinolin-2(1H)-yl]methyl}benzamide], the IC50 was > 10 µM at HDAC 6 and 2.7 µM on HDAC 3.
Consider `C=C1CN(Cc2ccc(C(=O)Nc3ccccc3N)cc2)C(CC#N)c2ccccc21` (stereo not drawn) [Example 6, N-(2-Aminophenyl)-4-{[1-(cyanomethyl)-4-methylene-3,4-dihydroisoquinolin-2(1H)-yl]methyl}benzamide], for which the melting point is 93 to 95 °C. Further, the IC50 at HDAC 6 is > 10 µM. The IC50 on HDAC 3 came out at 0.31 µM.
`C=C1CN(Cc2ccc(C(=O)Nc3ccccc3N)cc2)C(CC(=O)Nc2ccccc2N)c2ccccc21` (stereo not drawn) [Example 8, N-(2-Aminophenyl)-4-{[1-{2-[(2-aminophenyl)amino]-2-oxoethyl}-4-methylene-3,4-dihydroisoquinolin-2(1H)-yl]methyl}benzamide] registered a melting point of 135 to 137 °C. At HDAC 6, the IC50 was > 10 µM. The IC50 on HDAC 3 amounted to 0.35 µM.
With `C=C1CN(Cc2ccc(C(=O)Nc3ccccc3N)cc2)C(CC(=O)NCCO)c2ccccc21` (stereo not drawn) [Example 10, N-(2-Aminophenyl)-4-{[1-{2-[(2-hydroxyethyl)amino]-2-oxoethyl}-4-methylene-3,4-dihydroisoquinolin-2(1H)-yl]methyl}-benzamide], the IC50 was > 10 µM at HDAC 6 and 0.67 µM on HDAC 3.
Taken in the same sequence, the figures for `C=C1CN(Cc2ccc(C(=O)Nc3ccccc3N)cc2)C(CC(=O)N2CCN(C)CC2)c2ccccc21` (stereo not drawn) [Example 11, N-(2-Aminophenyl)-4-{[4-methylene-1-[2-(4-methylpiperazin-1-yl)-2-oxoethyl]-3,4-dihydroisoquinolin-2(1H)-yl]methyl}benzamide] were > 10 µM and 0.56 µM.
Turning to `C=C1CN(Cc2ccc(C(=O)Nc3ccccc3N)cc2)C(=O)c2ccc(C(=O)OC)cc21` [Example 13, Methyl 2-(4-{[(2-aminophenyl)amino]carbonyl}benzyl)-4-methylene-1-oxo-1,2,3,4-tetrahydroisoquinoline-6-carboxylate], the melting point lay in the range of 196 to 198 °C. Moreover, the IC50 on HDAC 6 was > 10 µM. Further, the IC50 at HDAC 3 is 0.27 µM.
Taken in the same sequence, the figures for `C=C1CN(Cc2ccc(C(=O)Nc3ccccc3N)cc2)C(=O)c2ccc(C(=O)NCCN)cc21` [Example 14, N-(2-Aminoethyl)-2-(4-{[(2-aminophenyl)amino]carbonyl}benzyl)-4-methylene-1-oxo-1,2,3,4-tetrahydroisoquinoline-6-carboxamide] were 172 to 174 °C (dec.), > 10 µM and 0.23 µM.
Taken in the same sequence, the figures for `C=C1CN(S(=O)(=O)c2ccc(C(=O)Nc3ccccc3N)cc2)C(CC#N)c2ccccc21` (stereo not drawn) [Example 15] were 213 to 215 °C, > 10 µM and 1.4 µM.
